For orientation: MIC means the lowest concentration that inhibits growth of the organism. A higher MIC goes with a less susceptible organism.

The values below come from ChEMBL document CHEMBL4414596, “Highly Oxygenated Triterpenoids and Rare Tetraterpenoids from Abies chensiensis and Their Antibacterial Activity” (2019).

Molecules are shown by their SMILES. In brackets after ≈: the same amount, converted by molar mass. Activity calls are given as the source filed them. The rule behind the calls is not given here.

The subject of one experiment is Escherichia coli. The experiment in a line: Antibacterial activity against Escherichia coli after 24 hrs by broth microdilution method. It is filed as functional.
The next experiment relates to Klebsiella pneumoniae. In words: Antibacterial activity against Klebsiella pneumoniae after 24 hrs by broth microdilution method. The format is functional. In general terms: In broth dilution the organism is exposed to a series of concentrations in liquid medium.
The test system of the next experiment is Staphylococcus aureus. In words: Antibacterial activity against Staphylococcus aureus after 24 hrs by broth microdilution method. The format is functional.
The test system of experiment [1] is Bacillus subtilis. In words: Antibacterial activity against Bacillus subtilis after 24 hrs by broth microdilution method. The format is functional.
Experiment [2] has as its system Bacillus subtilis. In words: Antibacterial activity against Bacillus subtilis assessed as growth inhibition at 5 ug/ml after 10 hrs. It is filed as functional, organism-based.
The test system of experiment [3] is Bacillus subtilis. In words: Antibacterial activity against Bacillus subtilis assessed as growth inhibition at 10 to 80 ug/ml measured up to 26 hrs relative to control. The format is functional.
The test system of experiment [4] is Bacillus subtilis. In words: Induction of morphological changes in Bacillus subtilis assessed as cell disruption at 10 to 40 ug/ml after 24 hrs by SEM analysis. The format is functional, organism-based.
Experiment [5] has as its system Bacillus subtilis. The experiment in a line: Induction of morphological changes in Bacillus subtilis assessed as slender shape at 10 to 40 ug/ml after 24 hrs by SEM analysis. The format is functional, organism-based.
In experiment [6] the test system is Bacillus subtilis. In words: Induction of morphological changes in Bacillus subtilis assessed as wrinkled surface at 10 to 40 ug/ml after 24 hrs by SEM analysis. It is filed as functional, organism-based.
For experiment [7], the system named is Bacillus subtilis. The experiment in a line: Induction of morphological changes in Bacillus subtilis assessed as irregular size at 10 to 40 ug/ml after 24 hrs by SEM analysis. The format is functional, organism-based.
Experiment [8] relates to Bacillus subtilis. In words: Antibacterial activity against Bacillus subtilis assessed as growth inhibition at 5 to 80 ug/ml after 2 to 26 hrs relative to control. The format is functional.

For the molecule `CO[C@@H]1CC[C@]23C[C@]24CC[C@]2(C)[C@@H]([C@H](C)CC/C=C(\C)C(=O)O)C[C@@H](O)[C@@]2(C)[C@@H]4CC[C@H]3C1(C)C`, the MIC against Escherichia coli was over 40 µg/mL; with Klebsiella pneumoniae, over 40 µg/mL; against Staphylococcus aureus, over 40 µg/mL; against Bacillus subtilis [1] it was 20 µg/mL (≈ 41.1 µM).
For `CO[C@@H]1CC[C@]23C[C@]24CC[C@]2(C)[C@@H]([C@H](C)C[C@H](O)/C=C(\C)C(=O)O)CC[C@@]2(C)[C@@H]4CC[C@H]3C1(C)C`, the MIC in the experiment with Escherichia coli, against Klebsiella pneumoniae, in the experiment on Staphylococcus aureus and in the experiment with Bacillus subtilis [1] was over 40 µg/mL each time.
For `C/C(=C\CC[C@@H](C)[C@H]1C[C@@H](O)[C@@]2(C)[C@@H]3CC[C@H]4C(C)(C)[C@H](O)CC[C@@]45C[C@@]35CC[C@]12C)C(=O)O`, the MIC was over 40 µg/mL against Escherichia coli, over 40 µg/mL in the experiment with Klebsiella pneumoniae, over 40 µg/mL against Staphylococcus aureus and 10 µg/mL (≈ 21.2 µM) in the experiment on Bacillus subtilis [1].
Take `C/C(=C\[C@@H](O)C[C@@H](C)[C@H]1CC[C@@]2(C)C3=C(CC[C@]12C)[C@@]1(C)CCC(=O)C(C)(C)[C@@H]1CC3)C(=O)O`: the MIC in the experiment with Escherichia coli was over 40 µg/mL; against Klebsiella pneumoniae, over 40 µg/mL; with Staphylococcus aureus, 40 µg/mL (≈ 85 µM); with Bacillus subtilis [1] it was 10 µg/mL (≈ 21.2 µM).
`C/C(=C\CC[C@@H](C)[C@H]1CC[C@@]2(C)[C@@H]3CC[C@H]4C(C)(C)[C@H](O)CC[C@@]45C[C@@]35CC[C@]12C)C(=O)O` [ISOMANGIFEROLIC ACID]: the MIC in the experiment on Escherichia coli, with Klebsiella pneumoniae, with Staphylococcus aureus and against Bacillus subtilis [1] was over 40 µg/mL in each case.
Consider `C[C@H](CC[C@H](O)[C@](C)(O)CO)[C@H]1CC[C@@]2(C)[C@@H]3CC[C@H]4C(C)(C)C(=O)CC[C@@]45C[C@@]35CC[C@]12C` (relative stereo), for which the MIC against Escherichia coli, in the experiment with Klebsiella pneumoniae, in the experiment with Staphylococcus aureus and with Bacillus subtilis [1] was over 40 µg/mL in each case.
With `C[C@H](CC[C@@H](O)C(C)(C)O)[C@H]1CC[C@@]2(C)[C@@H]3CC[C@H]4C(C)(C)C(=O)CC[C@@]45C[C@@]35CC[C@]12C`, the MIC in the experiment on Escherichia coli, in the experiment on Klebsiella pneumoniae, against Staphylococcus aureus and with Bacillus subtilis [1] was over 40 µg/mL in each case.
As to `C=C1CC[C@@](C)([C@H](C)CC(=O)[C@H]2CC(CCC=C(C)C)=CC[C@]2(C)C(=O)O)[C@@]12CCC1=C2CC[C@H]2C(C)(C)[C@@H](O)CC[C@]12C`, the MIC against Escherichia coli, with Klebsiella pneumoniae, against Staphylococcus aureus and in the experiment on Bacillus subtilis [1] was over 40 µg/mL in each case.
Regarding `C/C(=C\CC[C@@H](C)[C@H]1CC[C@@]2(C)[C@@H]3CC[C@H]4C(C)(C)C(=O)CC[C@@]45C[C@@]35CC[C@]12C)C(=O)O` [MANGIFERONIC ACID], the MIC against Escherichia coli, in the experiment on Klebsiella pneumoniae, against Staphylococcus aureus and in the experiment with Bacillus subtilis [1] was over 40 µg/mL throughout.
As for `C/C(=C\CC[C@@H](C)[C@H]1C[C@@H](O)[C@@]2(C)[C@@H]3CC[C@H]4C(C)(C)[C@@H](O)CC[C@@]45C[C@@]35CC[C@]12C)C(=O)O`, the “growth inhibition (GI)” value with Bacillus subtilis [2] was “Active”. For the same molecule, in the experiment with Bacillus subtilis [3], the “growth inhibition (GI)” value was determined as 100%. The MIC in the experiment with Escherichia coli was over 40 µg/mL; with Klebsiella pneumoniae it was over 40 µg/mL; in the experiment on Staphylococcus aureus, 20 µg/mL (≈ 42.3 µM); against Bacillus subtilis [1], 10 µg/mL (≈ 21.2 µM).
`C/C(=C\CC[C@@H](C)[C@H]1[C@@H](O)[C@@H](O)[C@@]2(C)[C@@H]3CC[C@H]4C(C)(C)C(=O)CC[C@@]45C[C@@]35CC[C@]12C)C(=O)O`: the MIC in the experiment on Escherichia coli, against Klebsiella pneumoniae, in the experiment with Staphylococcus aureus and against Bacillus subtilis [1] was over 40 µg/mL in each case.
With `CC1=CC(O)(C[C@@H](C)[C@H]2CC[C@@]3(C)C4=C(CC[C@]23C)[C@@]2(C)CCC(=O)C(C)(C)[C@@H]2CC4)OC1=O` (some centres not stated), the MIC in the experiment on Escherichia coli, with Klebsiella pneumoniae, in the experiment with Staphylococcus aureus and in the experiment on Bacillus subtilis [1] was over 40 µg/mL in each case.
Take `CN[C@@H]1[C@H](O[C@H]2[C@H](O[C@H]3[C@H](O)[C@@H](O)[C@H](N=C(N)N)[C@@H](O)[C@@H]3N=C(N)N)O[C@@H](C)[C@]2(O)C=O)O[C@@H](CO)[C@H](O)[C@H]1O` [STREPTOMYCIN]: the MIC with Escherichia coli and in the experiment with Klebsiella pneumoniae was 5 µg/mL (≈ 8.6 µM) each time.
`C/C(=C\CC[C@@H](C)[C@H]1CC[C@@]2(C)[C@@H]3CC[C@H]4C(C)(C)[C@@H](O)CC[C@@]45C[C@@]35CC[C@]12C)C(=O)O` [MANGIFEROLIC ACID]: the MIC with Escherichia coli, against Klebsiella pneumoniae, against Staphylococcus aureus and against Bacillus subtilis [1] was over 40 µg/mL in each case.
Take `C[C@H](CC[C@H](O)[C@](C)(O)CO)[C@H]1CC[C@@]2(C)[C@@H]3CC[C@H]4C(C)(C)[C@@H](O)CC[C@@]45C[C@@]35CC[C@]12C` (relative stereo): the MIC against Escherichia coli, with Klebsiella pneumoniae, with Staphylococcus aureus and in the experiment with Bacillus subtilis [1] was over 40 µg/mL each time.
On to `C/C(=C\CC[C@@H](C)[C@H]1C[C@@H](O)[C@@]2(C)[C@@H]3CC[C@H]4C(C)(C)C(=O)CC[C@@]45C[C@@]35CC[C@]12C)C(=O)O`, for which the outcome with Bacillus subtilis [4], in the experiment on Bacillus subtilis [5], in the experiment with Bacillus subtilis [6] and with Bacillus subtilis [7] was Active. For the same molecule, the “growth inhibition (GI)” value with Bacillus subtilis [8] is given as 100%. Besides, the MIC was over 40 µg/mL in the experiment on Escherichia coli, over 40 µg/mL in the experiment with Klebsiella pneumoniae, 40 µg/mL (≈ 85 µM) in the experiment on Staphylococcus aureus and 5 µg/mL (≈ 10.6 µM) in the experiment on Bacillus subtilis [1].
Consider `CC1=C[C@@H](C[C@@H](C)[C@H]2CC[C@@]3(C)[C@@H]4CC[C@H]5C(C)(C)[C@@H](O)CC[C@@]56C[C@@]46CC[C@]23C)OC1=O`, for which the MIC in the experiment with Escherichia coli, against Klebsiella pneumoniae, against Staphylococcus aureus and against Bacillus subtilis [1] was over 40 µg/mL in each case.
As to `C/C(=C\[C@@H](O)C[C@@H](C)[C@H]1CC[C@@]2(C)[C@@H]3CC[C@H]4C(C)(C)[C@@H](O)CC[C@@]45C[C@@]35CC[C@]12C)C(=O)O`, the MIC is over 40 µg/mL in the experiment with Escherichia coli, over 40 µg/mL against Klebsiella pneumoniae, over 40 µg/mL with Staphylococcus aureus and 20 µg/mL (≈ 42.3 µM) with Bacillus subtilis [1].
For the molecule `CC1=C[C@@H](C[C@@H](C)[C@H]2C[C@@H](O)[C@@]3(C)[C@@H]4CC[C@H]5C(C)(C)[C@H](O)CC[C@@]56C[C@@]46CC[C@]23C)OC1=O`, the MIC in the experiment on Escherichia coli, with Klebsiella pneumoniae, in the experiment with Staphylococcus aureus and in the experiment with Bacillus subtilis [1] was over 40 µg/mL throughout.
With `C=C1CC[C@@](C)([C@H](C)CC(=O)C[C@@H](C)C(=O)O)[C@@]12CCC1=C2CC[C@H]2C(C)(C)C(=O)CC[C@]12C`, the MIC was over 40 µg/mL with Escherichia coli, over 40 µg/mL against Klebsiella pneumoniae, 40 µg/mL (≈ 85.3 µM) against Staphylococcus aureus and 10 µg/mL (≈ 21.3 µM) in the experiment with Bacillus subtilis [1].
Regarding `CC1(C)S[C@@H]2[C@H](NC(=O)[C@H](N)c3ccccc3)C(=O)N2[C@H]1C(=O)O` [AMPICILLIN], the MIC was over 40 µg/mL in the experiment on Escherichia coli, over 40 µg/mL against Klebsiella pneumoniae, 40 µg/mL (≈ 114 µM) against Staphylococcus aureus and over 40 µg/mL with Bacillus subtilis [1].
Take `CO[C@@H]1CC[C@]23C[C@]24CC[C@]2(C)[C@@H]([C@H](C)CC/C=C(\C)C(=O)O)[C@@H](O)[C@@H](O)[C@@]2(C)[C@@H]4CC[C@H]3C1(C)C`: the MIC in the experiment on Escherichia coli was over 40 µg/mL; in the experiment with Klebsiella pneumoniae it was over 40 µg/mL; with Staphylococcus aureus, 20 µg/mL (≈ 39.8 µM); in the experiment with Bacillus subtilis [1], 20 µg/mL (≈ 39.8 µM).
As for `O=C(N[C@H](CO)[C@H](O)c1ccc([N+](=O)[O-])cc1)C(Cl)Cl` [CHLORAMPHENICOL], the MIC in the experiment with Escherichia coli is over 40 µg/mL; in the experiment with Klebsiella pneumoniae it was over 40 µg/mL; in the experiment with Staphylococcus aureus, 20 µg/mL (≈ 61.9 µM); in the experiment on Bacillus subtilis [1] it was 5 µg/mL (≈ 15.5 µM).
